Numbers after ± are expanded uncertainties.

For this data set the following is noted: 101.33 kPa, Liquid.

On to `CCCCCCCCCCC` [undecane], for which the mass density (298.15 K) amounted to 740.289 ± 0.92 kg/m3. On to `Cc1cccc(C)c1` [1,3-dimethylbenzene], for which the mass density (293.15 K) was determined as 868.124 ± 0.65 kg/m3. On the same count and under the same terms, next, `CCCCCCCCC` [nonane]: 718.418 ± 0.96 kg/m3. As for `c1ccccc1` [benzene], for the setting “298.15 K”, the mass density was determined as 873.945 ± 0.64 kg/m3. For `CCCCn1cc[n+](C)c1.F[P-](F)(F)(F)(F)F` [1-butyl-3-methylimidazolium hexafluorophosphate], where the note is “293.15 K, Vibrating tube method”, the mass density was 1380.33 ± 13 kg/m3. With `Cc1ccccc1` [toluene], the mass density (298.15 K) is 864.989 ± 0.18 kg/m3.

The values are drawn from the NIST ThermoML archive (doi:10.1016/j.fluid.2008.01.007).
